Reference: patent EP1298214A2, “Plant thioesterases” (Calgene LLC, priority 1990, dated 1991)
Read-outs that look alike come from different tables or passages of the source.

How the values were obtained:
[1] = tested on: Cuphea C10-preferring acyl-ACP thioesterase; experiment: C10 acyl-ACP thioesterase inhibitor studies, material from Example 9A; assay type: biochemical, Cuphea hookeriana; settings: preliminary inhibitor studies; for sensitivity of the thioesterase to the inhibitor (in words): concentration not given
Experimental: Following the same general procedures as outlined in Example 1, to assay for C10 thioesterase activity, the following mixture is incubated at 30° for 10-60 min: 50µl sample to be tested in the same or similar "extraction buffer" described in Example 9A, and approximately 250pmol of [^14C]-radiolabeled acyl-ACP substrate, (usually decanoyl-ACP is labeled in the carboxylate group to 50-60µCi/µmol) in a total volume of […], for a final decanoyl-ACP concentration of 0.5-5.0µM, typically 5.0µM. The reaction is stopped by adding 0.5ml 10% (v/v) cold (4°) acetic acid and placing the reaction mixture on ice for a few minutes. The fatty acid product of the hydrolytic enzyme action is extracted away from the unhydrolyzed substrate by adding 2ml diethyl ether and mixing vigorously. The ether is transferred to 5ml scintillation fluid for scintillation counting. Additional ether extracts may be performed to recover remaining traces of product for more accurate quantitation of the activity if desired.
An acetone powder is prepared by grinding the seeds to a powder in a mortar and pestle under liquid nitrogen, and then grinding the powder in a mortar and pestle with cold acetone (at approximately -20°). The powder is collected by filtration and rinsed with cold ether to remove remaining traces of acetone. It is then extracted with 10ml of "extraction buffer" per gram of acetone powder weight (this and all subsequent steps at 0-4°) comprising 50mM KH2PO4-KOH pH 7.5, 10mM 2-mercaptoethanol. The homogenate is centrifuged at 11,000xg for 15 min at 4°, and the supernatant fraction used for subsequent purification steps after filtration through two layers of Miracloth (Calbiochem. Inc.; LaJolla, CA).
The supernatant fraction is then subjected to ammonium sulfate fractionation. The 40-60% saturation ammonium sulfate pellet (prepared as described in Example 2) is redissolved in "buffer" comprising 50mM KH2PO4-KOH pH 6.9, 10% (v/v) glycerol, and 10mM 2-mercaptoethanol, and dialyzed against this buffer to remove remaining ammonium sulfate. […]

[2] = target: T1, Bay cotyledon C12-preferring acyl-ACP thioesterase (Umbellularia californica, UniProt Q41635); experiment: C12-preferring acyl-ACP thioesterase inhibitor studies, Bay ammonium sulfate fraction; assay type: biochemical; settings: for inhibition at 500 µM / inhibition at 5000 µM: read-out: Percent Inhibition; for sensitivity of the thioesterase to the thiol reagent (in words): 5mM, preliminary inhibitor studies
T1 construct: This comprises the source tissue for enzyme extraction; from tissue; host or cells: cotyledons of immature Umbellularia californica seeds
T1 sequence (Q41635 84-382): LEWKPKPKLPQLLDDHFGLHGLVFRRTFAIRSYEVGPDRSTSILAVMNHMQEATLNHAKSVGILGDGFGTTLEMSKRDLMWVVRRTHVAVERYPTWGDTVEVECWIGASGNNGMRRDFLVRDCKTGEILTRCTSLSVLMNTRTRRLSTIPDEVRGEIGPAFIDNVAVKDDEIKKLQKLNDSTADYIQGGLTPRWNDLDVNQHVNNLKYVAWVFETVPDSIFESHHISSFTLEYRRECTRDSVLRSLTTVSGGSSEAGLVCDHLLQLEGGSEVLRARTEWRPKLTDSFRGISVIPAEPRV
Experimental: (§1) To assay for C12 thioesterase activity the following mixture is incubated at 30° for 30 min: "buffer" comprising 7mM KH2PO4-KOH pH 8, 20% v/v glycerol, 1mM dithiothreitol (DTT), 0.1% v/v Triton X100; sample to be tested for activity in the same or similar buffer as the "extraction buffer" described in Example 2; and 5µl of ^14C-radiolabeled lauroyl-ACP substrate for a total volume of 100µl and final lauroyl-ACP concentration of 0.5µM. Lauroyl-ACP substrate is prepared according to the method of Rock et al (Methods in Enzymology (1981) 72:397-403), using ACP prepared from Escherichia coli by the method of Rock and Cronan (Methods in Enzymology (1981) 71:341-351). The laurate is radiolabeled in the carboxylate group at a specific radioactivity of 50-60µCi/µmol.
(§2) The reaction is stopped by adding 0.5ml cold (0°) 10% v/v acetic acid. The fatty acid product of the hydrolytic enzyme action is extracted away from the unhydrolyzed substrate by adding 1ml diethyl ether and mixing vigorously. After settling for a few minutes the upper ether layer is transferred to 5ml scintillation fluid for determination of radioactivity by liquid scintillation spectrometry. Additional ether extractions may be performed to recover remaining traces of the reaction product for more accurate quantitation of the enzyme activity if desired. The amount of ether-extracted radioactivity is a direct measure of C12-preferring acyl-ACP thioesterase activity, provided the amount of enzyme is not sufficient to hydrolyze more than about 25% of the substrate. With greater activity than this the relationship between radioactivity in the ether layer and the quantity of enzyme becomes markedly nonlinear. The enzyme preparation must then be diluted appropriately to bring the activity into the linear range of the assay.
The crude extract is subjected to ammonium sulfate fractionation as follows. Sufficient solid ammonium sulfate is gradually added with stirring over 30 min to achieve 70% saturation. The preparation is then stirred for a further 30 min. After centrifuging as described above, the pelleted material is resuspended in extraction buffer (2ml/g original tissue weight) and stirred for 10 min until dissolved. Ammonium sulfate is then added as before, but this time only sufficient to achieve 50% saturation. After centrifuging as before, the supernatant fraction is discarded. The pelleted material, which contains the C12-preferring acyl-ACP thioesterase, may be frozen by immersion in liquid nitrogen and then stored at -70° at this stage if desired. The resulting material is referred to as the "ammonium sulfate fraction." Very little of the C12-preferring acyl-ACP thioesterase activity is lost if the pellet is frozen very rapidly.
Table 1 below reports inhibition of Bay cotyledon C12-preferring acyl-ACP thioesterase by thiol reagents observed when an ammonium sulfate fraction (see, Example 2) was assayed (see, Example 1).
After removal of dithiothreitol from an ammonium sulfate fraction preparation by passage through a small. column of G25-50 gel filtration medium (Pharmacia, Piscataway, NJ) the following assay results were observed.

[3] = tested on: material which fails to bind the ACP column (Lauroyl-CoA hydrolysis activity); experiment: Substrate hydrolysis (ACP versus CoA) by peak unbound fraction of the ACP column; assay type: biochemical, Umbellularia californica; settings: Flow-through (nonbinding) fraction; cpm of ether-extractable product
Experimental: as §1
(§3) The reaction is stopped by adding 0.5ml cold (0°) 10% v/v acetic acid. […] After settling for a few minutes the upper ether layer is transferred to 5ml scintillation fluid for determination of radioactivity by liquid scintillation spectrometry. Additional ether extractions may be performed to recover remaining traces of the reaction product for more accurate quantitation of the enzyme activity if desired. The amount of ether-extracted radioactivity is a direct measure of C12-preferring acyl-ACP thioesterase activity, provided the amount of enzyme is not sufficient to hydrolyze more than about 25% of the substrate. […]

[4] = tested on: Bay seeds extractable C12-preferring acyl-ACP thioesterase and lauroyl-CoA hydrolysis activity; experiment: Extractable hydrolysis activity at two stages of Bay seed development; assay type: biochemical, Umbellularia californica; settings: cpm ether-extractable radioactivity
Experimental: as §1, §2
Further evidence that the C12-preferring acyl-ACP thioesterase is involved in the biosynthesis of laurate groups that predominate in the Bay seeds comes from a comparison of the extractable activity of the enzyme at two different stages of seed development. As shown in the following table, Table 5, very young seeds, which contain only long-chain fatty acids and insignificant amounts of laurate, yield much less C12-preferring ACP thioesterase than older seeds that have accumulated significant amounts of laurate. Thus it appears that significant activity of this enzyme is only present when the seeds are accumulating laurate. Additionally, there appears to be much less difference in lauroyl-CoA hydrolysis activity, consistent with their being different enzymes as discussed above in Example 5.

[5] = target: T2, Bay C12-preferring acyl-ACP thioesterase (Umbellularia californica, UniProt Q41635); experiment: Substrate hydrolysis (ACP versus CoA) by peak gradient-eluted fraction of the ACP column; assay type: biochemical; set-up: This comprises the source tissue for enzyme extraction; from tissue; host or cells: cotyledons of immature Umbellularia californica seeds; settings: cpm of ether-extractable product
T2 sequence (Q41635 84-382): T1 sequence (Q41635 84-382)
Experimental: as §1, §3

[6] = 0.5mM added to assay, mean of duplicates, ether layer, control without addition 4322
[7] = 5mM added to assay, after removal of dithiothreitol by G25-50 gel filtration, control 3776
[8] = 5mM added to assay, after removal of dithiothreitol by G25-50 gel filtration
[9] = 5mM added to assay, mean of duplicates, ether layer, control without addition 4322

O=S(=O)(F)Cc1ccccc1 [phenylmethylsulfonyl fluoride]
sensitivity of the thioesterase to the inhibitor (in words) [1]: insensitive

CCN1C(=O)C=CC1=O [N-ethylmaleimide]
Mean Activity [2, 6]: 4320 cpm
inhibition at 500 µM ([2]; 0.5mM added to assay): 0%
Mean Activity [2, 7]: 269 cpm
inhibition at 5000 µM [2, 8]: 93%
Mean Activity [2, 9]: 103 cpm
inhibition at 5000 µM ([2]; 5mM added to assay): 98%
sensitivity of the thioesterase to the thiol reagent (in words) [2]: almost completely inhibited
inhibition of the thioesterase (in words) ([1]; 5mM): completely inhibited

CCCCCCCCCCCC(=O)SCCNC(=O)CCNC(=O)[C@H](O)C(C)(C)COP(=O)(O)OP(=O)(O)OC[C@H]1O[C@@H](n2cnc3c(N)ncnc32)[C@H](O)[C@@H]1OP(=O)(O)O [C12-CoA, lauroyl coenzyme A]
Activity on Substrate [3]: 10808 cpm
Hydrolysis / Thioesterase Activity In Assays ([4]; Normal Seeds (2g/cotyledon pair)): 31,268 cpm
Hydrolysis / Thioesterase Activity In Assays ([4]; Young Seeds (0.5g/cotyledon pair)): 29,995 cpm
Activity on Substrate [5]: 27 cpm

NC(=O)CI [iodoacetamide]
Mean Activity [2, 6]: 4180 cpm
inhibition at 500 µM ([2]; 0.5mM added to assay): 3%
Mean Activity [2, 7]: 3851 cpm
inhibition at 5000 µM [2, 8]: 0%
Mean Activity [2, 9]: 4047 cpm
inhibition at 5000 µM ([2]; 5mM added to assay): 6%
sensitivity of the thioesterase to the thiol reagent (in words) [2]: insensitive
sensitivity of the thioesterase to the inhibitor (in words) [1]: insensitive
